Test results as given in patent publication US20210205225A1, “BIOAVAILABLE ORAL DOSAGE FORMS” (PTC Therapeutics, Inc., priority 2018, published 2021).
Values after ≈ are worked out from the molar mass of the structure shown.

Key:
[1] = Phase 1 single-dose lipid capsule PK and food effect study; format: in vivo, human
Description: (§1) Compound 1 has been evaluated in a Phase 1, randomized, placebo-controlled, escalating, single-dose, safety, tolerability, PK, and food effect study in healthy adult volunteers. Compound 1 was provided in lipid-filled gelatin capsules. The primary objective of the study was to determine a dose range for Compound 1 that safely achieved pharmacologically active target plasma concentrations (as determined from xenograft studies) and that was appropriate for use in a subsequent multiple-dose study.
(§2) Subjects in the study were enrolled in 2 stages. In Stage 1, 40 subjects were accrued in 5 cohorts of 8 subjects with each cohort receiving a sequentially higher single dose of Compound 1 at dose levels of 0.03, 0.1, 0.3, 1, and 3 mg/kg. Within a cohort, 6 subjects (3 males and 3 females) received Compound 1 and 2 subjects (1 male and 1 female) received placebo. An additional 12 subjects (6 males and 6 females) were enrolled in Stage 2 to evaluate the effect of food on the PK of Compound 1.
(§3) During both Stages 1 and 2 of the study, data regarding adverse events, vital signs, blood counts, coagulation assessments, blood chemistry determinations, urinalyses, and ECGs were collected at baseline and repeatedly over 72 hours after administration of the study medication, and again at a follow-up visit 7 days after the last study treatment. In both Stages 1 and 2, blood samples for assessment of plasma Compound 1 concentrations were collected at multiple timepoints. Compound 1 concentrations were analyzed using LC-MS/MS, validated for human plasma. Blood for measurement of plasma DHODH levels are collected at multiple time points. Plasma DHODH concentrations are analyzed using a clinically validated ELISA (R&D Systems). Similarly, blood for measurement of plasma VEGF-A levels was collected at multiple time points. Plasma VEGF-A concentrations were analyzed using a clinically validated ELISA (R&D Systems).

[2] = Phase 1 single-dose lipid capsule study, safety and tolerability; format: in vivo, human
Description: as §1, §2, §3

[3] = Clinical BA/BE and food effect study, PVP SDI Formulation tablets vs Lipid Formulation capsules, PK; format: in vivo, human
Experimental: The PVP SDI Formulation tablets prepared in Example 13 were compared to the Lipid Formulation capsules prepared in Example 7 in a clinical BA/BE (bioequivalence/bioavailability) study that evaluated the effect of food on the bioavailability of the PVP SDI Formulation tablets.
(§4) Compound 1 was administered as a single-dose in Lipid Formulation capsules or as PVP SDI Formulation tablets. The primary objective of the study was to determine the comparative single-dose PK and safety profiles of Compound 1 administered in the 2 formulations. The study was also aimed to study of the food effect on the PK and safety profiles for the PVP SDI Formulation tablet.
(§5) Subjects in the study were enrolled in 3 stages. In Stage 1, 24 subjects were randomly accrued into 3 cohorts of 8 subjects receiving Compound 1 in both the Lipid Formulation capsule and the PVP SDI Formulation tablet at dose levels of 0.5 mg/kg, 1 mg/kg, and 2 mg/kg. In Stage 2, 24 subjects were accrued in 3 cohorts of 8 subjects with each cohort receiving a sequentially higher doses of Compound 1 in the PVP SDI Formulation tablet at dose levels of 400, 800, and 1600 mg. An additional 12 subjects (6 males and 6 females) were enrolled in Stage 3 to evaluate the effect of food on the PK of Compound 1 when administered at 400 mg and 1000 mg in the PVP SDI Formulation tablet.
(§6) During the study, data regarding adverse events, vital signs, blood counts, coagulation assessments, blood chemistry determinations, urinalyses, and ECGs were collected at baseline and repeatedly over 72 hours after administration of the study medication, and again at a follow-up visit 7 days after the last study treatment. Blood samples for assessment of plasma Compound 1 concentrations were collected at multiple timepoints. Compound 1 concentrations were analyzed using LC-MS/MS, validated for human plasma.

[4] = Clinical BA/BE and food effect study, safety; format: in vivo, human
Experimental: as §4, §5, §6

[5] = Solubility of the SDI and a surfactant (5% w/w) in aqueous solution, saturated, RT; format: physicochemical
Experimental: Aqueous suspensions (5% w/w) of the crystalline Compound 1b and the amorphous SDI were prepared in saturated solutions with surfactants selected from SDS, Poloxamer 188, Poloxamer 407, Gelucire 44/14 and Gelucire 50/13.
The solution was not sufficiently translucent to determine when sufficient material was added to provide the saturated solution. As a result, the solution was allowed to stand so that the excess Gelucire settled, and the supernatant was recovered and used for the solubility study. The exact concentration of Gelucire 50/13 in the solution was unknown.

[6] = solid formulation, higher doses
[7] = saturated in 5% w/w Gelucire 44/14 aqueous solution, 0 hrs
[8] = saturated in 5% w/w Gelucire 44/14 aqueous solution, 24 hrs
[9] = saturated in 5% w/w Poloxamer 188 aqueous solution, 0 hrs
[10] = saturated in 5% w/w SDS aqueous solution, 0 hrs
[11] = saturated in 5% w/w SDS aqueous solution, 24 hrs
[12] = saturated in Gelucire 50/13 supernatant solution, 0 hrs
[13] = saturated in Gelucire 50/13 supernatant solution, 24 hrs

SMILES: COc1ccc([C@H]2c3[nH]c4ccc(Cl)cc4c3CCN2C(=O)Oc2ccc(Cl)cc2)cc1 [Compound 1, 4-chlorophenyl (S)-6-chloro-1-(4-methoxyphenyl)-1,3,4,9-tetrahydro-2H-pyrido[3,4-b]indole-2-carboxylate]
- increases in mean Cmax values with dose ([1]; Stage 1, 0.03-3 mg/kg): generally dose proportional
- increase of mean Cmax by high-fat, high-calorie meal ([1]; Stage 2, 1 mg/kg): about 40%
- Tmax ([1]; both sexes, human, plasma, oral, lipid capsules, single dose): 3 to 6 h
- half-life ([1]; both sexes, human, plasma, oral, lipid capsules, single dose, read-out: terminal half-life (t1/2β)): 1680 to 3360 min
- low concentrations still evident in plasma ([1]; lipid capsules, 3.0-mg/kg dose): ≥ 168 h
- persistence of concentrations in plasma ([1]; lipid capsules, doses 0.30 mg/kg): ≥ 72 h
- mean Cmax after a high-fat, high-calorie meal ([1]; lipid capsules, fed vs fasted): increased
- lag time to appearance in plasma ([1]; lipid-filled gelatin capsules, single dose): about 30 minutes
- treatment-emergent adverse event: nausea, subjects receiving Compound 1 ([2]; Stage 1): 4 subjects
- treatment-emergent adverse event: headache ([2]; Stage 1, 40 subjects dosed): 9 episodes in 8 subjects
- adverse event: back pain ([2]; Stage 2): 2 episodes in 2 subjects
- adverse event: headaches ([2]; Stage 2): 3 episodes in 3 subjects
- severity of adverse events ([2]; all except 1 case of Grade 2 diarrhea at 1 mg/kg fasted, Stage 2): Grade 1
- hematology, coagulation, chemistry parameters ([2]; both stages): No clinically significant changes
- physical examinations, vital sign measurements, ECGs ([2]; both stages): no safety concerns
- deaths or serious adverse events ([2]; in vivo): No deaths or serious adverse events
- tolerability ([2]; single dose, lipid capsules): generally well tolerated
- mean Cmax after a high-fat, high-calorie meal ([3]; PVP SDI Formulation tablet, fed vs fasted): increased
- increase of mean Cmax and AUC by high-fat, high-calorie meal ([3]; Stage 3, 400 mg or 1000 mg, PVP SDI Formulation tablet): about 100%
- half-life ([3]; human, plasma, oral, PVP SDI Formulation tablet, Stage 2): 1.58 to 2.71 days
- Tmax ([3]; human, plasma, oral, single dose): 3 to 7 h
- concentrations still evident in plasma [3, 6]: ≥ 168 h
- lag time to appearance in plasma [3, 6]: about 30 minutes
- persistence of concentrations in plasma [3, 6]: ≥ 72 h
- laboratory abnormality in 1 subject ([4]; Stage 1, 2 mg/kg in the Lipid Capsule Formulation, considered unlikely to be drug related): Grade 3 elevation of serum creatine kinase
- physical examinations, vital sign measurements, ECGs ([4]; all 3 stages): no safety concerns
- deaths or serious adverse events ([4]; human, in vivo): No deaths or serious adverse events
- tolerability ([4]; single dose, lipid capsules or PVP SDI tablets): generally well tolerated

SMILES: COc1ccc([C@H]2c3[nH]c4ccc(Cl)cc4c3CCN2C(=O)Oc2ccc(Cl)cc2)cc1 [Compound 1b]
- Solubility [5, 7]: 14.7 µg/mL (≈ 31.5 µM)
- Solubility [5, 8]: 23.6 µg/mL (≈ 50.5 µM)
- Solubility [5, 9]: 0.2 µg/mL (≈ 0.428 µM)
- Solubility [5, 10]: 2.4 µg/mL (≈ 5.14 µM)
- Solubility [5, 11]: 6.2 µg/mL (≈ 13.3 µM)
- Solubility [5, 12]: 7.8 µg/mL (≈ 16.7 µM)
- Solubility [5, 13]: 23.0 µg/mL (≈ 49.2 µM)

SMILES: COc1ccc([C@H]2c3[nH]c4ccc(Cl)cc4c3CCN2C(=O)Oc2ccc(Cl)cc2)cc1 [Sample 2]
- solubility at 24 h ([5]; 5% w/w Poloxamer 188 aqueous solution, aqueous with cosolvent or surfactant or cyclodextrin, thermodynamic from solid, saturated in 5% w/w Poloxamer 188 aqueous solution, 24 hrs): 4.3 µg/mL (≈ 9.2 µM)
- Solubility [5, 7]: 142.5 µg/mL (≈ 305 µM)
- Solubility [5, 8]: 58.4 µg/mL (≈ 125 µM)
- Solubility [5, 9]: 0.7 µg/mL (≈ 1.5 µM)
- Solubility [5, 10]: 224.7 µg/mL (≈ 481 µM)
- Solubility [5, 11]: 32.4 µg/mL (≈ 69.3 µM)
- Solubility [5, 12]: 677.4 µg/mL (≈ 1450 µM)
- Solubility [5, 13]: 371.5 µg/mL (≈ 795 µM)
